Data taken from US12622910B2, “Inhibitors of Bruton's tyrosine kinase and methods of their use” (Janssen Pharmaceutica NV, priority 2021, dated 2026).
Read-outs that look alike come from different tables or passages of the source.

Tests used:
ADRB1 (Adrenergic beta) = ADRB1 (Adrenergic beta) (Homo sapiens, UniProt P08588); assay: Receptor panel, Study 3 (agonist/antagonist); format: biochemical; conditions: n = 2
Method: (§1) RESULTS AND DISCUSSION—Selectivity—The compound of Formula (III) was evaluated in three selectivity panels to assess the potential for off-target pharmacology (Table 8). […] The kinase off-target profile of The compound of Formula (III) was assessed in a full human wild-type panel using radiometric kinase activity assays (KinaseProfiler™ and IC50Profiler™; Eurofins Scientific) (Table 9; FIG. 23). The compound of Formula (III) inhibited 4/278 kinases >50% at 1 micromolar, identifying BTK and the three other kinases having analogous Cys residues with the potential for covalent inhibition (BMX, TEC, BLK). […]. The cellular kinase selectivity of The compound of Formula (III) was established in native Ramos B cell kinome assays (KiNativ™; ActivX) confirmed BTK as the primary target with inhibition of BLK and TEC inhibition detected (Table 10).

H1 (Histamine H1) = H1 (Histamine H1) (Homo sapiens, UniProt P35367); assay: Receptor panel, Study 3 (agonist/antagonist); format: biochemical; conditions: n = 2
Method: as §1

ADRB2 (Adrenergic beta) = ADRB2 (Adrenergic beta) (Homo sapiens, UniProt P07550); assay: Receptor panel, Study 3 (agonist/antagonist); format: biochemical; conditions: n = 2
Method: as §1

DOP (Opioid delta) = DOP (Opioid delta) (Homo sapiens, UniProt P41143); assay: Receptor panel, Study 3 (agonist/antagonist); format: biochemical; conditions: n = 2; comment 20%
Method: as §1

D2L (Dopamine 2L) = D2L (Dopamine 2L) (Homo sapiens, UniProt P14416); assay: Receptor panel, Study 3 (agonist/antagonist); format: biochemical; conditions: n = 2
Method: as §1

B-cell activation = assay: Inhibition of B-cell activation after dosing (FIG. 22); format: in vivo; conditions: 2, 3, and 10 mg/kg, at 8 hours
Text: Data represent mean±SEM (n=3/group).

[1] = system: receptors, enzymes, and ion channels; assay: Panel of diverse proteins (54 test targets); format: binding; conditions: 10 μM
Method: as §1

hind paw inflammation = assay: Rat collagen-induced arthritis; format: in vivo, female Wistar rat
Text: (§2) In vivo activity in collagen-induced arthritis—A rat CIA model in female Wistar rats was used to define the impact of the compound of Formula (III) on chronic inflammation and derive PK-PD correlations (FIG. 16). YiSaipu™ (recombinant human tumor necrosis factor-α receptor (type II): IgGI Fc (rhTNFR:Fc) fusion protein; biogeneric version of Etanercept™) was used as a comparator. […] The doses required to achieve meaningful efficacy correlated with a BTK target occupancy threshold of >75% over 24 hours based on the preceding target engagement studies.
(§3) Rat collagen-induced arthritis—An emulsion was prepared on ice from equal volumes of type II collagen (CII; Chondrex) (2 mg/mL in 100 mM acetic acid (Sinopharm Chemical Reagent Co. Ltd)) and Incomplete Freund's Adjuvant (IFA) (Sigma-Aldrich) by high speed homogenization (28,000 rpm) for 3 min (FLUKO Equipment Shanghai Co. Ltd). Eighty-two rats were used in the study. Before immunization, 6 rats were randomly selected as a naïve group. The other 76 rats were anesthetized with inhalational isoflurane, and injected intradermally at the base of the tail with 0.2 mL of the emulsion (1 mg/mL CII/IFA), 2 to 3 cm from the body on day 0 and day 7. On day 10, the 56 rats with the most developed arthritis based on paw volume measurements out of the 76 rats that were immunized were divided into 7 groups (n=8) with a stratified random block design according to average hind paw volume of each rat. Each group with similar starting paw inflammation was administered with vehicle or different doses of the compound of Formula (III) (0.3, 1, 2, 3, 10 mg/kg, PO, QD, days 10-17) or YiSaiPu (biosimilar etarnacept) (15 mg/kg, IP, QOD, days 10-16).
(§4) Hind paws volume and body weight were monitored daily for 7 consecutive days (days 10-16) after initiation of test article dosing. Left and right paw volumes in each rat were measured by a Plethysmometer (Catalog No. 7140, Ugo Basile. Italy). Blood (about 300 μL) in the groups treated with the compound of Formula (III) was collected into heparinized tubes via retro-orbital bleeding under isoflurane anesthesia on day 17-18. For groups treated with the compound of Formula (III), the composite collection time points were 0, 0.5, 1, 2, 4, 8, 12 and 24 hrs after last administration of the compound of Formula (III). After collection, blood samples were centrifuged (5,000 rpm for 10 min), plasma collected, and the concentrations of the compound of Formula (III) were determined using liquid chromatography mass spectrophotometry.

[2] = Rat collagen-induced arthritis; format: in vivo, female Wistar rat; conditions: female, Wistar, rat, plasma, oral, 2 mg/kg/day
Text: as §2, §3, §4

[3] = Plasma protein binding, equilibrium dialysis; format: in vitro ADME
Method: Additional Data on Preclinical PK Profile—Protein binding of the compound of Formula (III) was studied using an equilibrium dialysis method in plasma from human, cynomolgus monkey, beagle dog, Sprague Dawley rat, CD-1 mouse, and guinea pig at 0.25, 2.5, and 25 μM. […] In human and monkey, the plasma protein binding was concentration dependent. […] Free fraction of the compound of Formula (III) in liver microsomes from various species ranged from 75.1% to 87.9% at 0.25 mg/mL and from 58.9% to 86.5% at 1.0 mg/mL (Table 17). […] In hepatocytes, the compound of Formula (III) turnover followed a similar trend, with T1/2 ranging from 75.3 minutes in monkey to 278.1 minutes in human.

[4] = target: 278 human wild type kinases; assay: Full human wild-type kinase panel (KinaseProfiler); format: biochemical; conditions: 1 micromolar
Method: as §1

[5] = CD-1, mouse, read-out: % Free in plasma
[6] = beagle, dog, read-out: % Free in plasma
[7] = cynomolgus monkey, read-out: % Free in plasma

H1 (Histamine H1), sequence (P35367 whole entry): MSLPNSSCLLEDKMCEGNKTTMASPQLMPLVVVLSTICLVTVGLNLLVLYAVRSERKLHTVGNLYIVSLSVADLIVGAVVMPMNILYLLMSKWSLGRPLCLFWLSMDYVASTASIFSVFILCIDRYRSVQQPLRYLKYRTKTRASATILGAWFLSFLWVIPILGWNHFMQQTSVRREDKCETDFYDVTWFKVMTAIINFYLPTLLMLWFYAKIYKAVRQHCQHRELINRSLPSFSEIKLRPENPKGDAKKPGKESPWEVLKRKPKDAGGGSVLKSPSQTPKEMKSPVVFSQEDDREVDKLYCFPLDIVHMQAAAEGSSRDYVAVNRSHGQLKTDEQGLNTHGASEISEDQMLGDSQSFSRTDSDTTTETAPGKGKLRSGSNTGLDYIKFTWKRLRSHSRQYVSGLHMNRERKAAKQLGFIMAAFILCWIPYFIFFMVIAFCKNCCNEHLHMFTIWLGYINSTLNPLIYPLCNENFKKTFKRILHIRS
ADRB1 (Adrenergic beta), sequence (P08588 whole entry, species assumed): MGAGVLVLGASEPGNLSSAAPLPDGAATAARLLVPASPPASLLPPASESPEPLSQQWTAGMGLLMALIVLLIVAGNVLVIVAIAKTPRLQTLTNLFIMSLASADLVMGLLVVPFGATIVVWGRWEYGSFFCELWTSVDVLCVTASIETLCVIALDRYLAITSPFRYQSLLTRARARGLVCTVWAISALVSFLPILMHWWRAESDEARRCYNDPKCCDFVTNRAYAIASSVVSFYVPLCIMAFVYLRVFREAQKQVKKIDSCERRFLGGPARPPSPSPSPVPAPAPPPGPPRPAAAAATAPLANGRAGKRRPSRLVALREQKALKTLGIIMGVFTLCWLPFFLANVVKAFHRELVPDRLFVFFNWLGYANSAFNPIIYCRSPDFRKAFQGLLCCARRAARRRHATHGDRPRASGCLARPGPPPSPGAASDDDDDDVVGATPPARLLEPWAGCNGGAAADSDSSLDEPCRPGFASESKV
ADRB2 (Adrenergic beta), sequence (P07550 whole entry, species assumed): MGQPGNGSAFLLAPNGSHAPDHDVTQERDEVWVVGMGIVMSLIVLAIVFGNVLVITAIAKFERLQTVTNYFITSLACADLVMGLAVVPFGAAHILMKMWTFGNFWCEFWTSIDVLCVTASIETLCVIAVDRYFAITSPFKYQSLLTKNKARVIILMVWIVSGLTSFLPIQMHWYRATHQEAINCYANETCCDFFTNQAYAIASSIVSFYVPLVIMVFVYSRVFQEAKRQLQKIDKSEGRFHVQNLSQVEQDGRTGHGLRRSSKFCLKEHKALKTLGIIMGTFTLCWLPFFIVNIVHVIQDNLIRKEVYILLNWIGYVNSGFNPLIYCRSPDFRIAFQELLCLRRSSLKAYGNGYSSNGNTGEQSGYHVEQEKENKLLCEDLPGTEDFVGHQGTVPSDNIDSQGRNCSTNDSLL
D2L (Dopamine 2L), sequence (P14416 whole entry): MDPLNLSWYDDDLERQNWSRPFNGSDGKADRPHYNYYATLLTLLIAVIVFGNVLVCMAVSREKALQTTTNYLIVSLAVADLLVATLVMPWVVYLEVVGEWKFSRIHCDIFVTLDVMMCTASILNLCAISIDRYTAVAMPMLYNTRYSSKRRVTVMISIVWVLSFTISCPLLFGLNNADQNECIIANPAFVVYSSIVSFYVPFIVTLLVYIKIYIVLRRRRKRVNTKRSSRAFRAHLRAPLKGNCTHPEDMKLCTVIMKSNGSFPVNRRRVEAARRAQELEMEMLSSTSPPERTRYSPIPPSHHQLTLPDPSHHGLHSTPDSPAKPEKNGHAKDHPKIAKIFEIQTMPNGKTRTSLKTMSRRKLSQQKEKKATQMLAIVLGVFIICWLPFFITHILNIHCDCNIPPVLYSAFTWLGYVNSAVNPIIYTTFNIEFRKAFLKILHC
DOP (Opioid delta), sequence (P41143 whole entry): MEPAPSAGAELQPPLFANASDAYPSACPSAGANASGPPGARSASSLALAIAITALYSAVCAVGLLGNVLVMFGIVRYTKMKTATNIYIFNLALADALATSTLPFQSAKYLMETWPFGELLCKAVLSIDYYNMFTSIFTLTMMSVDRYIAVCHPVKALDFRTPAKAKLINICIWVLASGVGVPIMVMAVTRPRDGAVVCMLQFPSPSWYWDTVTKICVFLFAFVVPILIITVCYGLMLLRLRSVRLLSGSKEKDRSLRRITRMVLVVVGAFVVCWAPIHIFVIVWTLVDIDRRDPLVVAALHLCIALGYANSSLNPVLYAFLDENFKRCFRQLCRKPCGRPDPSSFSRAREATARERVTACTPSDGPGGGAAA

SMILES: C=CC(=O)N[C@H]1CCC[C@H]1NC(=O)c1sc2nccc3c2c1NC(=O)N3c1cnc(CC(C)C)cc1C (atropisomer, axis not shown) [compound of Formula (III), N-((1R,2S)-2-Acrylamidocyclopentyl)-5-(S)-(6-isobutyl-4-methylpyridin-3-yl)-4-oxo-4,5-dihydro-3H-1-thia-3,5,8-triazaacenaphthylene-2-carboxamide]
- IC50 (ADRB1 (Adrenergic beta)): > 12.5 µM
- IC50 (H1 (Histamine H1); read-out: Agonist IC50): > 10 µM
- IC50 (H1 (Histamine H1); read-out: Antagonist IC50): > 10 µM
- IC50 (ADRB2 (Adrenergic beta)): > 12.5 µM
- IC50 (DOP (Opioid delta)): > 10 µM
- IC50 (D2L (Dopamine 2L)): > 12.5 µM
- inhibition ratio of B-cell activation (B-cell activation): ≥ 78%
- binding in off-target panel [1]: did not bind >50% at 10 μM for any of the 54 test targets
- effect on hind paw inflammation (hind paw inflammation; 0.3, 1, 2, 3, 10 mg/kg/day PO QD): attenuated hind paw inflammation in a dose-dependent manner
- dose with effect on inflammation equivalent to anti-TNFα comparator (hind paw inflammation; PO QD): ≥ 2 mg/kg/day
- AUC(0-t) ([2]; read-out: AUClast at efficacious dose): 0.324 µg·h/mL
- Cmax ([2]; read-out: Cmax at efficacious dose): 0.0466 µg/mL
- fraction unbound at 0.25 μM [3, 5]: 0.0192
- fraction unbound at 2.5 μM ([3]; CD-1, mouse, 2.5 μM, read-out: % Free in plasma): 0.024
- fraction unbound at 25 μM [3, 5]: 0.0335
- fraction unbound at 0.25 μM [3, 6]: 0.0688
- fraction unbound at 25 μM [3, 6]: 0.0685
- fraction unbound at 0.25 μM [3, 7]: < 0.004
- fraction unbound at 25 μM [3, 7]: 0.0532
- fraction unbound at 1 μM ([3]; female, Wistar, rat, read-out: free fraction in plasma): 0.0754
- kinases inhibited >50% [4]: 4/278
